Measurements as given in patent US20090137569A1, “Administration of (3S)-N-hydroxy-4-(sulfonyl)-2,2-dimethyl-3-thiomorpholine carboxamide or (S)-N_hydroxy-4-[4_(but-2-ynyloxy)phenylsulfonyl]-2,2-dimethyl thimomorpholine-3-carboxamide for preventing and/or treating inflammatory skin pathologies/afflictions” (GALDERMA RESEARCH & DEVELOPMENT, priority 2007, published 2009).

Test system: TPA-induced mouse ear edema
Test: TPA-induced mouse ear edema test, single topical application
Assay type: in vivo
Conditions: Balb/c mice
Procedure: Evaluation of the Anti-Inflammatory Activity of Apratastat after a Single Topical Application in the TPA-Induced Mouse Ear Edema Test on Balb/c Mice (TPA=Tetradecanoylphorbol Acetate)
Edema is induced by single application of 20 μl of TPA dissolved in acetone at 0.01%.
The test compound is diluted in a TPA solution and applied at a concentration of 0.1%, 0.3% to 1%.
A positive control, betamethasone valerate (VdB), is also tested.
The thickness of the mouse ear is measured at T+6 h.

SMILES	reduction of the edema of the ear induced by TPA (single topical application at 0.1% in TPA solution, ear thickness at T+6 h, NS)	reduction of the edema of the ear induced by TPA (single topical application at 0.3% in TPA solution, ear thickness at T+6 h, **)	reduction of the edema of the ear induced by TPA (single topical application at 1% in TPA solution, ear thickness at T+6 h, **)	anti-inflammatory effect (in words) (single topical application, 0.1% to 1%, TPA-induced ear edema)	reduction in the edema of the ear (single topical application at 0.01%, diluted in TPA solution, ear thickness at T+6 h)
CC1(C)SCCN(S(=O)(=O)c2ccc(OCC#CCO)cc2)[C@H]1C(=O)NO [Apratastat, (3S)—N-hydroxy-4-({4-[(4-hydroxy-2-butynyl)oxy]phenyl}sulfonyl)-2,2-dimethyl-3-thiomorpholinecarboxamide]	25%	47%	49%	dose-dependent anti-inflammatory effect	–
CCCCC(=O)O[C@]1(C(=O)CO)[C@@H](C)C[C@H]2[C@@H]3CCC4=CC(=O)C=C[C@]4(C)[C@@]3(F)[C@@H](O)C[C@@]21C [betamethasone valerate, reference compound]	–	–	–	–	93%
